Read-outs that look alike come from different tables or passages of the source.
What was measured:
[1] = cited from earlier work
LNCaP = assay: Cell-Titer Glo viability, LNCaP; format: cell-based, human; conditions: for effect on cell killing by 10 μM Abiraterone: 10, 20 and 40 μM SB203580 (FIG. 13B)
Method: (§1) Twenty four hours later, the indicated concentration of BI2536 and R1881 were added, representing time zero. Viability of the prostate cancer cells was assessed using Cell-Titer Glo™ according to the manufacturer's instructions.
(§2) Cell viability was assessed after 5 days using Cell-Titer Glo™ according to the manufacturer's instructions.
(§3) Cell viability was assessed after 4 days using Cell-Titer Glo™ according to the manufacturer's instructions.
Experiments were conducted to investigate the role of the p38MAPK-MK2 pathway in prostate cancer, Western blotting was used to investigate up-regulation of MK3 and MK5 protein levels in LNCaP cells after MK2 knock down using shRNA.

C4-2 = assay: Cell-Titer Glo viability, C4-2; format: cell-based, human; conditions: for relative levels of proliferation: 5 nM BI2536, 10 μM abiraterone, alone or in combination, FBS, 5 days post-administration (FIG. 4); for effect on cell killing by 10 μM Abiraterone: 10, 20 and 40 μM SB203580 (FIG. 13B)
Method: as §1
Viability was measured for the subsequent five days using Cell-Titer Glo™ according to the manufacturer's instructions.
as §2, §3

PSA expression = PSA expression by qPCR in C4-2 CRPC cells; format: cell-based, human; conditions: 10 μM abiraterone, 5 nM BI2536, alone or combined; 24 hours; FBS (FIG. 8)
From the text: RNA was isolated for analysis by qPCR.

HCT 116 xenografts = conditions: cited from earlier work
BxPC-3 = conditions: twice-weekly; cited from earlier work
A549 = conditions: twice-weekly; cited from earlier work
[2] = cited from earlier work; remark: listed apart in the source
[3] = other studies; cited from earlier work
[4] = cited from earlier work; remark: listed apart in the source
[5] = tested on: panel of >50 other kinases; conditions: concentrations up to 10 μM, in vitro; cited from earlier work
[6] = tested on: multiple human carcinoma xenografts including HCT 116, NCI-H460, and taxane-resistant CXB1 colon carcinoma; conditions: ~25 mg/kg/day; cited from earlier work
[7] = in combination with afatinib; cited from earlier work
[8] = cited from earlier work; remark: listed apart in the source
22 RV1 = assay: Cell-Titer Glo viability, 22 RV1; format: cell-based; conditions: for effect on cell killing by 10 μM Abiraterone: 10, 20 and 40 μM SB203580 (FIG. 13B)
Method: Cell viability of PCa cell lines to increasing doses (10, 20 and 40 μM) of the p38MAPK inhibitor SB203580, as measured using Cell Titer Glo (FIG. 13A).

xenograft tumor models = conditions: under proper dose scheduling; cited from earlier work
cell culture = conditions: cited from earlier work
[9] = cited from earlier work; remark: listed apart in the source
Plk1 = Plk1 (Homo sapiens, UniProt P53350); conditions: cited from earlier work
Chain of Plk1 (P53350 whole entry): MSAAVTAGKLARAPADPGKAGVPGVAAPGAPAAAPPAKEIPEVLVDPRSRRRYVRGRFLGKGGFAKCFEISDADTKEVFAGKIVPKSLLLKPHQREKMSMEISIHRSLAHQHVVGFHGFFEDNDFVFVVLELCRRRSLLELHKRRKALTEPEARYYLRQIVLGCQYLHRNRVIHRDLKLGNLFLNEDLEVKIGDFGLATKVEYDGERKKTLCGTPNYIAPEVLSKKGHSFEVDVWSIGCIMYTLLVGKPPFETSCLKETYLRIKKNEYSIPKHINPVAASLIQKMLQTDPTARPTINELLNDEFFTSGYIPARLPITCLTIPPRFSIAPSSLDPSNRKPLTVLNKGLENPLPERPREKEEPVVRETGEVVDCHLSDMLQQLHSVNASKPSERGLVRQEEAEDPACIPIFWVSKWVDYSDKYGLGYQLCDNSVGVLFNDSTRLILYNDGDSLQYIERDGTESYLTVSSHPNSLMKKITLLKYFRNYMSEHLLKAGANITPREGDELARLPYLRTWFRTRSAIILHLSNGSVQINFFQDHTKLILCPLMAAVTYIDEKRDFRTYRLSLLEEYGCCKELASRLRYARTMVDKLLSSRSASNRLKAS

[10] = tested on: various human tumor cell lines; conditions: cited from earlier work
mouse xenograft models = conditions: 10 mg/kg and 20 mg/kg on days 1 and 28; cited from earlier work
[11] = cited from earlier work; remark: listed apart in the source
[12] = 24 to 48 mg/m^2 for 5 consecutive days every 4 weeks; cited from earlier work
cell mitosis = conditions: read-out: EC50 inhibition of cell mitosis; cited from earlier work
[13] = tested on: Cdc25C-T96 phosphorylation; conditions: read-out: EC50 Cdc25C-T96 phosphorylation; cited from earlier work
[14] = tested on: cell lines, representative of both solid and hematological tumors; conditions: cited from earlier work
[15] = biological target: several tyrosine kinases and cyclin-dependent kinase 1 (Cdk1); conditions: cited from earlier work
[16] = tested on: Bel-7402, MCF-7, and MIA-PaCa cells; conditions: 250 mg/kg; cited from earlier work
BT20 cells = conditions: 200 mg/kg; cited from earlier work
[17] = cited from earlier work; remark: listed apart in the source
[18] = tested on: HT-29 human colorectal tumors; conditions: cited from earlier work
[19] = tested on: several tumor cell lines, including those that express multidrug-resistant protein 1 (MDR1); conditions: cited from earlier work
[20] = increasing concentrations of BI2536, csFBS (FIG. 3A)

SMILES: CC(=O)O[C@H]1CC[C@@]2(C)C(=CC[C@@H]3[C@@H]2CC[C@]2(C)C(c4cccnc4)=CC[C@@H]32)C1 [Abiraterone acetate, abiraterone acetate]
- solubility in water [1]: practically insoluble in water

SMILES: CC[C@@H]1C(=O)N(C)c2cnc(Nc3ccc(C(=O)NC4CCN(C)CC4)cc3OC)nc2N1C1CCCC1 [BI2536]
- proliferation over time (LNCaP; 5 nM BI2536, csFBS (FIG. 3B)): reduced
- viability (LNCaP; [20]): reduced
- relative levels of proliferation (C4-2): reduced over time
- proliferation over time (C4-2; 5 nM BI2536, csFBS (FIG. 3B)): reduced
- viability (C4-2; [20]): reduced
- PSA expression (PSA expression): did not suppress PSA expression
- T/C (HCT 116 xenografts; 50 mg/kg once per week): 15%
- T/C (HCT 116 xenografts; 50 mg/kg twice per week): 0.3%
- T/C (BxPC-3): 5%
- T/C (A549): 14%
- maximum tolerated dose ([2]; day 1 schedule): 350 mg
- maximum tolerated dose ([2]; days 1+8 schedule): 200 mg
- MTD [3]: 50 to 70 mg
- safety profile ([4]; 200 mg combined with standard-dose pemetrexed): acceptable safety profile
- dose-limiting toxicities (DLT) ([4]; 325 mg with pemetrexed): grade 3 pruritus and rash; grade 4 neutropenia
- maximum tolerated dose (MTD) ([4]; in combination with 500 mg/m^2 pemetrexed, day 1 every 3 weeks, intravenous): 300 mg

SMILES: CC[C@@H]1C(=O)N(C)c2cnc(Nc3ccc(C(=O)N[C@H]4CC[C@H](N5CCN(CC6CC6)CC5)CC4)cc3OC)nc2N1C(C)C [BI6727]
- inhibitory activity against a panel of >50 other kinases [5]: no inhibitory activity
- growth of xenografts [6]: significantly inhibits the growth
- MTD [7]: 300 mg
- DLTs ([8]; i.v. once every 3 weeks, 12-450 mg): neutropenia, thrombocytopenia, and febrile neutropenia
- MTD ([8]; i.v. once every 3 weeks): 400 mg
- recommended dose for further development based on overall tolerability ([8]; in vivo): 300 mg

SMILES: CC(=O)O[C@@]12CO[C@@H]1C[C@H](O)[C@@]1(C)C(=O)[C@H](O)C3=C(C)[C@@H](OC(=O)[C@H](O)[C@@H](NC(=O)OC(C)(C)C)c4ccccc4)C[C@@](O)([C@@H](OC(=O)c4ccccc4)[C@H]21)C3(C)C [Docetaxel, docetaxel]
- synergy with Abiraterone (% viability) (LNCaP; 5 nM docetaxel, increasing abiraterone, 4 days, FBS (FIG. 7A)): did not synergize with Abiraterone
- synergy with Abiraterone (% viability) (C4-2; 5 nM docetaxel, increasing abiraterone, 4 days, csFBS (FIG. 7C)): did not synergize with Abiraterone
- synergy with Abiraterone (% viability) (22 RV1; 5 nM docetaxel, increasing abiraterone, 4 days, csFBS (FIG. 7B)): did not synergize with Abiraterone

SMILES: C[C@@H](Oc1cc(-n2cnc3ccc(CN4CCN(C)CC4)cc32)sc1C(N)=O)c1ccccc1C(F)(F)F [GSK461364]
- effect in xenograft tumor models (xenograft tumor models): tumor regression
- nature of cell culture growth inhibition (cell culture): cytostatic or cytotoxic
- DLTs ([9]; in vivo): grade 4 neutropenia, sepsis, and pulmonary embolism
- incidence of venous thrombotic emboli ([9]; in vivo): 20%
- final recommended phase II dose ([9]; intravenously, schedule A (days 1, 8, and 15 of 28-day cycle)): 225 mg

SMILES: COc1ccc(S(=O)(=O)Nc2ccccc2/C=C/c2cc[n+]([O-])cc2)cc1 [HMN-176]
- direct inhibition of the enzymatic activity of Plk1 (Plk1): does not directly inhibit the enzymatic activity of Plk1
- cytotoxicity [10]: potent cytotoxicity
- antitumor activity (mouse xenograft models): potent antitumor activity

SMILES: COc1ccc(S(=O)(=O)N(C(C)=O)c2ccccc2/C=C/c2cc[n+]([O-])cc2)cc1 [HMN-214]
- dose-limiting toxicities ([11]; 9.9 mg/m^2/d): severe myalgia/bone pain syndrome and hyperglycemia
- maximum tolerated dose and recommended dose ([11]; continuous 21-day dosing schedule every 28 days): 8.0 mg/m^2/d
- DLTs [12]: prolonged neutropenia, febrile neutropenia, neutropenic sepsis, electrolyte disturbance, neuropathy, and myalgia

SMILES: Cc1ncc(CCCN(C)C)cc1Nc1ncc2c(n1)-c1ccc(C(F)(F)F)cc1NC(=S)C2 [MLN0905]
- EC50 (cell mitosis): 9 nM
- EC50 [13]: 29 nM

SMILES: CN1CCN(c2ccc(OC(F)(F)F)c(Nc3ncc4c(n3)-c3c(c(C(N)=O)nn3CCO)CC4)c2)CC1 [NMS 1286937]
- potency in proliferation assays [14]: low nanomolar activity

SMILES: COc1cc(OC)c(/C=C/S(=O)(=O)Cc2ccc(OC)c(NCC(=O)[O-])c2)c(OC)c1.[Na+] [ON 01910]
- IC50 [15]: 18 to 260 nM
- tumor growth [16]: inhibited tumor growth
- tumor growth (BT20 cells): inhibition of tumor growth
- DLT ([17]; at the MTD): Grade 3 abdominal pain
- MTD ([17]; i.v. days 1, 4, 8, 11, 15, and 18 in 28-day cycles): 3,120 mg

SMILES: C[C@]1(O)CC[C@H]2[C@@H]3CCC4=CC(=O)CCC4=C3C=C[C@@]21C [R1881]
- proliferation over time in the presence of BI2536 and synthetic androgen (LNCaP; 5 nM BI2536, csFBS (FIG. 3B)): somewhat rescued
- viability in the presence of BI2536 and synthetic androgen (LNCaP; csFBS (FIG. 3A)): somewhat rescued
- proliferation over time in the presence of BI2536 and synthetic androgen (C4-2; 5 nM BI2536, csFBS (FIG. 3B)): somewhat rescued
- viability in the presence of BI2536 and synthetic androgen (C4-2; csFBS (FIG. 3A)): somewhat rescued

SMILES: COc1cc(C(=O)NC2CCN(C)CC2)ccc1Nc1ncc2c(n1)N(C1CCCC1)CC(F)(F)C(=O)N2C [RO3280]
- antitumor activity ([18]; dosed more frequently): complete tumor regression
- tumor growth inhibition ([18]; once weekly at 40 mg/kg): 72%

SMILES: C[S+]([O-])c1ccc(-c2nc(-c3ccncc3)c(-c3ccc(F)cc3)[nH]2)cc1 (centres unmarked) [SB203580]
- cell death, p38MAPK inhibition alone (LNCaP; 10, 20 and 40 μM (FIG. 13A)): small amounts of cell death
- effect on cell killing by 10 μM Abiraterone (LNCaP): additive
- effect on cell killing by 10 μM Abiraterone (LNCaP; listed as p38MAPK inhibitor): modestly enhanced
- cell death, p38MAPK inhibition alone (C4-2; 10, 20 and 40 μM (FIG. 13A)): small amounts of cell death
- effect on cell killing by 10 μM Abiraterone (C4-2): additive
- effect on cell killing by 10 μM Abiraterone (C4-2; listed as p38MAPK inhibitor): modestly enhanced
- cell death, p38MAPK inhibition alone (22 RV1; 10, 20 and 40 μM (FIG. 13A)): small amounts of cell death
- effect on cell killing by 10 μM Abiraterone (22 RV1): additive
- effect on cell killing by 10 μM Abiraterone (22 RV1; listed as p38MAPK inhibitor): modestly enhanced

SMILES: COc1cc(C(=O)NC2CCN(C)CC2)c(F)cc1Nc1ncc2c(n1)N(C1CCCC1)CC(F)(F)C(=O)N2C [TAK-960]
- activity in tumor cell lines [19]: has shown activity

SMILES: C[C@]12CC[C@H](O)CC1=CC[C@@H]1[C@@H]2CC[C@]2(C)C(c3cccnc3)=CC[C@@H]12 [abiraterone]
- relative levels of proliferation (C4-2): reduced over time
- sensitivity to Abiraterone in the absence of BI2536 (C4-2; five days, csFBS): relatively resistant
- sensitivity to Abiraterone in the absence of BI2536 (22 RV1; five days, csFBS): relatively resistant
- PSA expression (PSA expression): substantially decreased

From patent publication US12115171B2, “Combination therapies and methods of use thereof for treating cancer” (Massachusetts Institute of Technology, priority 2014, dated 2024)
